In ChEMBL document CHEMBL4118045, “Vitepyrroloids A-D, 2-Cyanopyrrole-Containing Labdane Diterpenoid Alkaloids from the Leaves of Vitex trifolia” (J Nat Prod, 2017) one finds Activity and IC50 data, which are given here for four compounds.

The structures appear in SMILES notation. Active and inactive are the calls of the source. The calls are words filed in the database; no cut-off is given here. Where only a bound is given, the exact number is not on record here.

Assay [1] has as its system CNE-2. The assay can be described thus: Cytotoxicity against human CNE2 cells assessed as reduction in cell viability after 3 days by MTT assay. It counts as functional, cell-based.
The subject of assay [2] is CNE. The experiment in a line: Cytotoxicity against human CNE1 cells assessed as reduction in cell viability after 3 days by MTT assay. It counts as functional, cell-based.

With `CCOC(=O)CCCn1ccc(CC[C@@]2(O)[C@H](C)CC[C@H]3C(C)(C)CCC[C@@]32C)c1C#N`, the outcome in assay [1] and in assay [2] was inactive.

Turning to `C[C@@H]1CC[C@H]2C(C)(C)CCC[C@]2(C)[C@@]1(O)CCc1cc[nH]c1C#N`, the IC50 (usually the concentration at which inhibition is half-maximal) in assay [1] (CNE-2, 72 h) is > 10 µM; in assay [2] (72 h) it was 8.7 µM.

As for `CC(=O)O[C@@H]1C[C@@H](C)[C@](O)(CCc2ccn(CCO)c2C#N)[C@@]2(C)CCCC(C)(C)[C@H]12`, the result in assay [1] and in assay [2] was inactive.

As for `CC(=O)O[C@H]1CC[C@@]2(C)[C@@H](CC[C@@H](C)[C@]2(O)CCc2ccn(CCCC(=O)O)c2C#N)C1(C)C`, the result in assay [1] and in assay [2] was inactive.
